Reference: PubChem BioAssay (NCI)
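A five-concentration, 48-hour dose response in 96-well plates underlies each endpoint, interpolated linearly between surrounding concentrations. TGI: total growth inhibition.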

What was measured:
Assay in all cases: NCI-60 cell line screen, 48 h
HOP-92 NSCLC = tested on: HOP-92 NSCLC
MDA-MB-435 = tested on: MDA-MB-435
NCI/ADR-RES ovarian = tested on: NCI/ADR-RES ovarian
EKVX NSCLC = tested on: EKVX NSCLC
UACC-62 melanoma = tested on: UACC-62 melanoma
HL-60(TB) leukemia = tested on: HL-60(TB) leukemia
MDA-N = tested on: MDA-N
MOLT-4 leukemia = tested on: MOLT-4 leukemia
CCRF-CEM leukemia = tested on: CCRF-CEM leukemia
U251 CNS = tested on: U251 CNS
RXF 393 renal = tested on: RXF 393 renal
RPMI-8226 leukemia = tested on: RPMI-8226 leukemia
SK-MEL-2 melanoma = tested on: SK-MEL-2 melanoma
NCI-H522 lung = tested on: NCI-H522 lung
A498 renal = tested on: A498 renal
IGROV1 ovarian = tested on: IGROV1 ovarian
A549 NSCLC = tested on: A549 NSCLC
HT29 colon = tested on: HT29 colon
SF-295 CNS = tested on: SF-295 CNS
SW-620 colon = tested on: SW-620 colon
T-47D breast = tested on: T-47D breast
SN12C renal = tested on: SN12C renal
PC-3 prostate = tested on: PC-3 prostate
NCI-H226 lung = tested on: NCI-H226 lung
HOP-62 NSCLC = tested on: HOP-62 NSCLC
COLO 205 colon = tested on: COLO 205 colon
UACC-257 melanoma = tested on: UACC-257 melanoma
K-562 leukemia = tested on: K-562 leukemia
TK-10 renal = tested on: TK-10 renal
OVCAR-5 ovarian = tested on: OVCAR-5 ovarian
HCT-15 colon = tested on: HCT-15 colon
786-0 renal = tested on: 786-0 renal
NCI-H23 lung = tested on: NCI-H23 lung
OVCAR-4 ovarian = tested on: OVCAR-4 ovarian
OVCAR-8 ovarian = tested on: OVCAR-8 ovarian
DU-145 prostate = tested on: DU-145 prostate
NCI-H460 lung = tested on: NCI-H460 lung
SK-MEL-5 melanoma = tested on: SK-MEL-5 melanoma
MALME-3M melanoma = tested on: MALME-3M melanoma
KM12 colon = tested on: KM12 colon
HS 578T breast = tested on: HS 578T breast
OVCAR-3 ovarian = tested on: OVCAR-3 ovarian
SK-MEL-28 melanoma = tested on: SK-MEL-28 melanoma
SF-268 CNS = tested on: SF-268 CNS
MCF7 breast = tested on: MCF7 breast
ACHN renal = tested on: ACHN renal
M14 melanoma = tested on: M14 melanoma
SR leukemia = tested on: SR leukemia
UO-31 renal = tested on: UO-31 renal
SNB-75 CNS = tested on: SNB-75 CNS
MDA-MB-231 breast = tested on: MDA-MB-231 breast
LOX IMVI melanoma = tested on: LOX IMVI melanoma
SK-OV-3 ovarian = tested on: SK-OV-3 ovarian
HCT-116 colon = tested on: HCT-116 colon
SF-539 CNS = tested on: SF-539 CNS
CAKI-1 renal = tested on: CAKI-1 renal
SNB-19 CNS = tested on: SNB-19 CNS
BT-549 breast = tested on: BT-549 breast

Q: What does the source list for `CN(Cc1cc(C(C)(C)C)cc(Br)c1O)Cc1cc(C(C)(C)C)cc(Br)c1O`?
A: TGI (HOP-92 NSCLC): 12.8 µM; TGI (MDA-MB-435): 15.9 µM; TGI (NCI/ADR-RES ovarian): 11.1 µM; TGI (EKVX NSCLC): 12.7 µM; TGI (UACC-62 melanoma): 12.8 µM; TGI (HL-60(TB) leukemia): 7.71 µM; TGI (MDA-N): 15.9 µM; TGI (MOLT-4 leukemia): 19.9 µM; TGI (CCRF-CEM leukemia): 10.4 µM; TGI (U251 CNS): 8.15 µM; TGI (RXF 393 renal): 7.98 µM; TGI (RPMI-8226 leukemia): 6.79 µM; TGI (SK-MEL-2 melanoma): 5.86 µM; TGI (NCI-H522 lung): 7.33 µM; TGI (A498 renal): 8.93 µM; TGI (IGROV1 ovarian): 13.5 µM; TGI (A549 NSCLC): 13.7 µM; TGI (HT29 colon): 15.9 µM; TGI (SF-295 CNS): 14.3 µM; TGI (SW-620 colon): 16.9 µM; TGI (T-47D breast): 12.3 µM; TGI (SN12C renal): 15.2 µM; TGI (PC-3 prostate): 9.32 µM; TGI (NCI-H226 lung): 13.3 µM; TGI (HOP-62 NSCLC): 15.5 µM; TGI (COLO 205 colon): 28.4 µM; TGI (UACC-257 melanoma): 5.85 µM; TGI (K-562 leukemia): 14 µM; TGI (TK-10 renal): 5.88 µM; TGI (OVCAR-5 ovarian): 18.5 µM; TGI (HCT-15 colon): 12.1 µM; TGI (786-0 renal): 13.8 µM; TGI (NCI-H23 lung): 9.88 µM; TGI (OVCAR-4 ovarian): 17.8 µM; TGI (OVCAR-8 ovarian): 15.3 µM; TGI (DU-145 prostate): 19.3 µM; TGI (NCI-H460 lung): 4.72 µM; TGI (SK-MEL-5 melanoma): 7.76 µM; TGI (MALME-3M melanoma): 13.7 µM; TGI (KM12 colon): 12.9 µM; TGI (HS 578T breast): 7.65 µM; TGI (OVCAR-3 ovarian): 6.73 µM; TGI (SK-MEL-28 melanoma): 17.4 µM; TGI (SF-268 CNS): 11.2 µM; TGI (MCF7 breast): 10.7 µM; TGI (ACHN renal): 9.01 µM; TGI (M14 melanoma): 14.9 µM; TGI (SR leukemia): 12.2 µM; TGI (UO-31 renal): 12.7 µM; TGI (SNB-75 CNS): 13 µM; TGI (MDA-MB-231 breast): 6.91 µM; TGI (LOX IMVI melanoma): 14.8 µM; TGI (SK-OV-3 ovarian): 22.2 µM; TGI (HCT-116 colon): 9.46 µM; TGI (SF-539 CNS): 7.66 µM; TGI (CAKI-1 renal): 11.4 µM; TGI (SNB-19 CNS): 19.3 µM; TGI (BT-549 breast): 14.4 µM
